Experimental data from ChEMBL document CHEMBL1146847, “Design and synthesis of potent, non-peptidic inhibitors of HPTPbeta” (Bioorg Med Chem Lett, 2006).
One block for each compound: values may come before it.

Assays:
[1] = target: Receptor-type tyrosine-protein phosphatase beta (Homo sapiens, UniProt P23467)
[2] = target: Receptor-type tyrosine-protein phosphatase epsilon (Homo sapiens, UniProt P23469); experiment: Inhibition of HPTP epsilon
[3] = target: T1, Receptor-type tyrosine-protein phosphatase F (Homo sapiens, UniProt P10586); experiment: Inhibition of LAR1
T1 sequence (P10586 whole entry): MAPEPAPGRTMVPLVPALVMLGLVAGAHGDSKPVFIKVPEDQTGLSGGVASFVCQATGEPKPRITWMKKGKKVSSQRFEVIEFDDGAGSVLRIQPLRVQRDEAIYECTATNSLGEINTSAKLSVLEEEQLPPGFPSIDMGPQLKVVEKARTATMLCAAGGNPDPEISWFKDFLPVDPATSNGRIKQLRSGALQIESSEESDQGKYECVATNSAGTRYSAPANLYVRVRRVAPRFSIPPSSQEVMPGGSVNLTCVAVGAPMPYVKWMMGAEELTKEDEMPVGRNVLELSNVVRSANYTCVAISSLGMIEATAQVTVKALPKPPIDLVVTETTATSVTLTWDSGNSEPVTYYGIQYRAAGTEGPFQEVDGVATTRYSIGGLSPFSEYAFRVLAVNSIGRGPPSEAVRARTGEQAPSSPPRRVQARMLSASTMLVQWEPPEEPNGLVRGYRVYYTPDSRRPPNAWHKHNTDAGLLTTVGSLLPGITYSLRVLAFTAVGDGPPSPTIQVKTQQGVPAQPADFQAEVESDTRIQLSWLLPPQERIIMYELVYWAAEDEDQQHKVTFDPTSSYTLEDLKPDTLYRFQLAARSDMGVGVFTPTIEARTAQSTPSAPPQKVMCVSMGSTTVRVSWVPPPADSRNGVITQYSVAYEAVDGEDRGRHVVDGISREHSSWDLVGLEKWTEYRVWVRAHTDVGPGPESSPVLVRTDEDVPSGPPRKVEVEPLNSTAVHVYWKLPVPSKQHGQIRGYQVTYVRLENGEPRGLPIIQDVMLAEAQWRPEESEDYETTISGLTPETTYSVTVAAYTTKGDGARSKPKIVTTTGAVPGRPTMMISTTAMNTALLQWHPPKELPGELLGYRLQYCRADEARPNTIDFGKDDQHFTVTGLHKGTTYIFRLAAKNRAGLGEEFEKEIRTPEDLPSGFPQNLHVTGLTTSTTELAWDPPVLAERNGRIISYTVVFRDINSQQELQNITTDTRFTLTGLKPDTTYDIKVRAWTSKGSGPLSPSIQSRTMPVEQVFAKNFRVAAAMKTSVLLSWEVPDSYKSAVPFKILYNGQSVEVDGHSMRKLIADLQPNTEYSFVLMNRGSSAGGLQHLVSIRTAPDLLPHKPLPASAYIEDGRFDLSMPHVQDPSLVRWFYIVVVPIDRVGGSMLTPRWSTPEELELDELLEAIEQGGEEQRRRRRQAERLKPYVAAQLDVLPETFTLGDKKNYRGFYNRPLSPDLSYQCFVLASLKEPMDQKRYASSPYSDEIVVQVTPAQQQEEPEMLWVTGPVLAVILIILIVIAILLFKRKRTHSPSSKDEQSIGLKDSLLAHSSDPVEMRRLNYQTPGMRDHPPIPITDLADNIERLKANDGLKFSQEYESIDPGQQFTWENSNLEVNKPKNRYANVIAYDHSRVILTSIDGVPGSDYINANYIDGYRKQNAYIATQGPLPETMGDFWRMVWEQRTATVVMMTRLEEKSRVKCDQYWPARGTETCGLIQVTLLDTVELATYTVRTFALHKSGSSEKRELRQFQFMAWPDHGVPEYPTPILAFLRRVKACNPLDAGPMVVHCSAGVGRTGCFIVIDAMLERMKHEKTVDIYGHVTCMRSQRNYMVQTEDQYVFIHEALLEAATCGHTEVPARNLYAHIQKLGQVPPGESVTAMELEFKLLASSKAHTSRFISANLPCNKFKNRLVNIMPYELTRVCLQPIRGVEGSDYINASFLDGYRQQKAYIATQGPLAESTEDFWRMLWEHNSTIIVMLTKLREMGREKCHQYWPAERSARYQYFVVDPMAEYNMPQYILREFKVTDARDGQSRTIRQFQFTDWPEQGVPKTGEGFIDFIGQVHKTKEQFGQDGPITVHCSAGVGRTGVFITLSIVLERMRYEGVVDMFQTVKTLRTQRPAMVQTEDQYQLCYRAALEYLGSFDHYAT

[4] = target: T1, Receptor-type tyrosine-protein phosphatase F; experiment: Inhibition of LAR2
[5] = target: T2, Tyrosine-protein phosphatase non-receptor type 1 (Homo sapiens, UniProt P18031); experiment: Inhibition of PTP1B
T2 sequence (P18031 whole entry): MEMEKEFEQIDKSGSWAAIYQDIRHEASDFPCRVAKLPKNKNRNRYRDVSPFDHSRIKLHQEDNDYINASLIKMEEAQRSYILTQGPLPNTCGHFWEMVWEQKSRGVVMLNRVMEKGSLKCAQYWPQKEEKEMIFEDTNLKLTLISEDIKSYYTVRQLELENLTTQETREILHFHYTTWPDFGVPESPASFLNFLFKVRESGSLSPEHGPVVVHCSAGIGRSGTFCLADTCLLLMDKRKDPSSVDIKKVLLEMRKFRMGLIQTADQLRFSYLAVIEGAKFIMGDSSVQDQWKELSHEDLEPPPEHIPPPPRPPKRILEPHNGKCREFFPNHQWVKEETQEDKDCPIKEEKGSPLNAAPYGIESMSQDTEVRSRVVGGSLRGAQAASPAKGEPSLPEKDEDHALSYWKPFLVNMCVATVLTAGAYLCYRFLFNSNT

[6] = target: T3, Low molecular weight phosphotyrosine protein phosphatase (Homo sapiens, UniProt P24666); experiment: Inhibition of HCPTPA
T3 sequence (P24666 whole entry): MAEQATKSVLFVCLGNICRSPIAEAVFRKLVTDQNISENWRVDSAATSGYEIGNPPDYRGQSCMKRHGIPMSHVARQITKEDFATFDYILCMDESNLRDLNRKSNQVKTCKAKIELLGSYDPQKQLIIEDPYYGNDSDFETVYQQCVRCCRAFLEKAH

[7] = target: Receptor-type tyrosine-protein phosphatase gamma (Homo sapiens, UniProt P23470); experiment: Inhibition of PTP gamma
Sequence of Receptor-type tyrosine-protein phosphatase gamma (P23470 whole entry): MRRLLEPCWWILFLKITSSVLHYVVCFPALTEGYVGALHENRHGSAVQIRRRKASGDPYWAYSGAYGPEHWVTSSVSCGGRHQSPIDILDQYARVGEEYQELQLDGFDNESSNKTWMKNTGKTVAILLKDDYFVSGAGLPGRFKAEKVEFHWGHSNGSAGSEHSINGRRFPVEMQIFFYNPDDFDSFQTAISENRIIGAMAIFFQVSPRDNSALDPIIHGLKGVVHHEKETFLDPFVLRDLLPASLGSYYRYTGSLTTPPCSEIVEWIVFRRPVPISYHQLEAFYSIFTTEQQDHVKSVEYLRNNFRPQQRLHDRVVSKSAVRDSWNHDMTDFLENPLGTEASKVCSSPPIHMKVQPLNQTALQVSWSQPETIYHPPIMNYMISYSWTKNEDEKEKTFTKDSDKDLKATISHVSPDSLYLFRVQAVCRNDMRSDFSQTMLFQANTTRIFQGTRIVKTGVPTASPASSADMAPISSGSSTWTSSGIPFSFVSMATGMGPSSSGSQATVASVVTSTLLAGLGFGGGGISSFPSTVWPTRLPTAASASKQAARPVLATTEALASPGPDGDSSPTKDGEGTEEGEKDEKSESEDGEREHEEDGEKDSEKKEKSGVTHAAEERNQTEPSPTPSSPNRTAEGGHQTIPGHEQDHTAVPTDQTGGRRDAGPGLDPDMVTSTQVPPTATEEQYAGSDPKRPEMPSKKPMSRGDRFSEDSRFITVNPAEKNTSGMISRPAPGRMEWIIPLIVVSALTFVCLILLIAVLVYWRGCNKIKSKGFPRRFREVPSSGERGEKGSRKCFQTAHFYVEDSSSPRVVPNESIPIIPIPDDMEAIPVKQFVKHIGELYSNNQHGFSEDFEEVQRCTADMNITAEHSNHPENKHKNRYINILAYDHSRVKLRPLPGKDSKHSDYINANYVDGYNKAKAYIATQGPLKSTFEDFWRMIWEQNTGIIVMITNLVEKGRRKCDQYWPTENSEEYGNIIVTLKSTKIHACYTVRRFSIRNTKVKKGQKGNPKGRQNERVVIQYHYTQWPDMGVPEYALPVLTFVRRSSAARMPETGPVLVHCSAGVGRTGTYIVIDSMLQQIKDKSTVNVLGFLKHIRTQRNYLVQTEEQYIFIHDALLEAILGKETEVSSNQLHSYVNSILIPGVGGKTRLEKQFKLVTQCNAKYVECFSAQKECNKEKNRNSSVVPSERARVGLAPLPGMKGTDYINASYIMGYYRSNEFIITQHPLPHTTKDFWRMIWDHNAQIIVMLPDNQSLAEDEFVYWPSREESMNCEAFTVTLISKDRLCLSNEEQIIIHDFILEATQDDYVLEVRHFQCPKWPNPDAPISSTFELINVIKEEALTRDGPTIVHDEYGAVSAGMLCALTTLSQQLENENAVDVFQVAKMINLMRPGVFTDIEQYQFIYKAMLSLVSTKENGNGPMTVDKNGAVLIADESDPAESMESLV

[8] = target: T4, Receptor-type tyrosine-protein phosphatase C (Homo sapiens, UniProt P08575); experiment: Inhibition of CD45
T4 sequence (P08575 whole entry): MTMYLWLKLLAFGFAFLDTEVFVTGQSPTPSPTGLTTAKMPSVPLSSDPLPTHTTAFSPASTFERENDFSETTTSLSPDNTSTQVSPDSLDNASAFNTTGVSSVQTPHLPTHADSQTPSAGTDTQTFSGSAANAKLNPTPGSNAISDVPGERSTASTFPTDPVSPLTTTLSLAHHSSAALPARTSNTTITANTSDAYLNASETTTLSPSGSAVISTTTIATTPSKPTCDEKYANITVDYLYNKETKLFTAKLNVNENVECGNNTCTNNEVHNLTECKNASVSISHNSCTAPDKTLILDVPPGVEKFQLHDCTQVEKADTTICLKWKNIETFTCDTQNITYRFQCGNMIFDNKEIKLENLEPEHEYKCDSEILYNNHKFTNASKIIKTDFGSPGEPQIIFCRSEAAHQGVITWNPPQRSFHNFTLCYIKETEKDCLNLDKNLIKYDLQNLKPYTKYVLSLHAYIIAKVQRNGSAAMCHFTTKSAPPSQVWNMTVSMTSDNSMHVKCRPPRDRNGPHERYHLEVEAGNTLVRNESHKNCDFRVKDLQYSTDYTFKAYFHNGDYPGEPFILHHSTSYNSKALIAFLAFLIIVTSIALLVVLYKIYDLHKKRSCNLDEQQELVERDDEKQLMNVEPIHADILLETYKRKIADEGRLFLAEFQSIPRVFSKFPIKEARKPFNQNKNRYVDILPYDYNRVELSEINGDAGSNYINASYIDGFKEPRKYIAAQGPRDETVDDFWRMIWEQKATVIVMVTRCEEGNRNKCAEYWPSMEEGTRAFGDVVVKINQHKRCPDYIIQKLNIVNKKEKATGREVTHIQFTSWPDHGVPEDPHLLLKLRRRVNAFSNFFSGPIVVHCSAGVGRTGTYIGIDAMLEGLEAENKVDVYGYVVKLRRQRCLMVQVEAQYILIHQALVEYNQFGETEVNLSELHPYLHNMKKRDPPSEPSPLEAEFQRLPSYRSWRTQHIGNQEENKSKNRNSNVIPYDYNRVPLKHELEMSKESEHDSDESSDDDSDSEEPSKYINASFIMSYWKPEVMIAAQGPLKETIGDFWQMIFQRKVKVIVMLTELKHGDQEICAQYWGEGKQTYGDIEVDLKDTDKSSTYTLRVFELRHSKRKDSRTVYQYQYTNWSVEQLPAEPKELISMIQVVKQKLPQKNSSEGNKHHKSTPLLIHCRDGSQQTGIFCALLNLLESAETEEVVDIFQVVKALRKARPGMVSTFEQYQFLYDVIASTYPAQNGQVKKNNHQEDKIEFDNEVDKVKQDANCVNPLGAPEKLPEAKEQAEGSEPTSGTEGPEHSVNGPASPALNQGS

[9] = target: T5, Tyrosine-protein phosphatase non-receptor type 2 (Homo sapiens, UniProt P17706); experiment: Inhibition of TCPTP38
T5 sequence (P17706 whole entry): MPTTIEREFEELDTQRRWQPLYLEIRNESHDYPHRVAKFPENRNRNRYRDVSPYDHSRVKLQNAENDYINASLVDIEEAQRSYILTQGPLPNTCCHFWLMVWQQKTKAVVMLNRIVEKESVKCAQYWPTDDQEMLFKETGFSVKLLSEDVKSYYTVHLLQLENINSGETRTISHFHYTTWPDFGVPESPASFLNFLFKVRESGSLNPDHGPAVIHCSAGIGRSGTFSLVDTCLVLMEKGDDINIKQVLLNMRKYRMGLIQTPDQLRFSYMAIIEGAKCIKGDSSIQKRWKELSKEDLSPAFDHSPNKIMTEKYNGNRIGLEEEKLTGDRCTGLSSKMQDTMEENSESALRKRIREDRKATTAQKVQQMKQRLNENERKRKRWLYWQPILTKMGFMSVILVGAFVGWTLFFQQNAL

[10] = target: Receptor-type tyrosine-protein phosphatase mu (Homo sapiens, UniProt P28827); experiment: Inhibition of HPTP mu
Sequence of Receptor-type tyrosine-protein phosphatase mu (P28827 whole entry): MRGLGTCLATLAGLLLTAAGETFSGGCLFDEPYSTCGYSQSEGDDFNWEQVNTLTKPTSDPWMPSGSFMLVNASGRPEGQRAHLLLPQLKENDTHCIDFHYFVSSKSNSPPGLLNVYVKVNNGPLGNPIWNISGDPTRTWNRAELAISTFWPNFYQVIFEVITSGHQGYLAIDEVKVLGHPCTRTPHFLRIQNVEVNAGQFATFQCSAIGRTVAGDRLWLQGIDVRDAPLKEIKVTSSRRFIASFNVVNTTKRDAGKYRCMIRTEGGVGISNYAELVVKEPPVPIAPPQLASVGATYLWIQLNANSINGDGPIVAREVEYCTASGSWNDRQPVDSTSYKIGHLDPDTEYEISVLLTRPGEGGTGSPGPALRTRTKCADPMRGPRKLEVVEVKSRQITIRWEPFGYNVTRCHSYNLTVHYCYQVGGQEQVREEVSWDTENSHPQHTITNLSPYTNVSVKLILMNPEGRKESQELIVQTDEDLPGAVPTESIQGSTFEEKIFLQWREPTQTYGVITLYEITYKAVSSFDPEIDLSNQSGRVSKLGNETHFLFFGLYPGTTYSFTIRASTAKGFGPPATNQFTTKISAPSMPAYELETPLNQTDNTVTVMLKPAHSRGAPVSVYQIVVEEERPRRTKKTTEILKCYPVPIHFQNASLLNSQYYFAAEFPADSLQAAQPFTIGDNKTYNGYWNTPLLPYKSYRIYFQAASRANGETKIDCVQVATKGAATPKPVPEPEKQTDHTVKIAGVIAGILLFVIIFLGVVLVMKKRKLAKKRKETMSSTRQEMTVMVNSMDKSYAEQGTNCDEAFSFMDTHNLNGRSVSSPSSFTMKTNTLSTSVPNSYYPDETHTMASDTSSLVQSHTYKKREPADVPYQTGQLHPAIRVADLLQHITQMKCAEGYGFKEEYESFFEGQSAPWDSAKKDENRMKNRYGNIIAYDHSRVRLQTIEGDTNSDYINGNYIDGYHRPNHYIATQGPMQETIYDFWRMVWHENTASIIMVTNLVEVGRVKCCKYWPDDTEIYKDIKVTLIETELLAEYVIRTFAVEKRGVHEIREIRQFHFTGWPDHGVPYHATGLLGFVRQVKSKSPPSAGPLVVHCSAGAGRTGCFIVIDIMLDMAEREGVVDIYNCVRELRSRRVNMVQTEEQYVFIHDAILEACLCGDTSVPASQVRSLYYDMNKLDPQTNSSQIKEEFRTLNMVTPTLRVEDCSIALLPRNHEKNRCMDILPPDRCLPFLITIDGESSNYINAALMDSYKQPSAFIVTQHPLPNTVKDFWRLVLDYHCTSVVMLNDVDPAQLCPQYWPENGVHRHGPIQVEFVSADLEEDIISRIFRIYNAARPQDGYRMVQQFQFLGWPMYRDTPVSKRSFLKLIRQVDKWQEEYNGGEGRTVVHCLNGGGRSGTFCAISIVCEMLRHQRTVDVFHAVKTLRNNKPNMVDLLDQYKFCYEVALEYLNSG

[11] = target: T5, Tyrosine-protein phosphatase non-receptor type 2; experiment: Inhibition of TCPTP
[12] = target: Receptor-type tyrosine-protein phosphatase alpha (Homo sapiens, UniProt P18433); experiment: Inhibition HPTPA

IC50 [1]: 80 nM
Compound: Cc1noc(C(Cc2ccc(NS(=O)(=O)O)cc2)(Cc2ccc(NS(=O)(=O)O)cc2)c2nc(C)no2)n1

IC50 [2]: > 500000 nM | IC50 [3]: 288000 nM | IC50 [4]: > 500000 nM | IC50 [5]: 16200 nM | IC50 [6]: 4800 nM | IC50 [1]: 230 nM | IC50 [7]: 200000 nM | IC50 [8]: 126000 nM | IC50 [9]: 109000 nM | IC50 [10]: > 500000 nM
Compound: CCOC(=O)CC(Cc1ccc(NS(=O)(=O)O)cc1)(C(=O)OC)C(=O)OC

IC50 [1]: 570 nM
Compound: COC(=O)C(Cc1ccncc1)(Cc1ccc(NS(=O)(=O)O)cc1)C(=O)OC

IC50 [1]: 140 nM
Compound: COC(=O)C(Cc1ccc(NS(=O)(=O)O)cc1)(Cc1ccc(C(=O)O)cc1)C(=O)OC

IC50 [1]: 90 nM
Compound: CCOC(=O)C(CCNC(=O)OC(C)(C)C)(Cc1ccc(NS(=O)(=O)O)cc1)C(=O)OC (configuration not stated)

IC50 [1]: 80 nM
Compound: COC(=O)C(CCCS(=O)(=O)c1nnnn1-c1ccccc1)(Cc1ccc(NS(=O)(=O)O)cc1)C(=O)OC

IC50 [11]: 19400 nM | IC50 [5]: 6100 nM | IC50 [12]: 900 nM
Compound: COC(=O)C(Cc1ccccc1)(Cc1ccc(NS(=O)(=O)O)cc1)C(=O)OC

IC50 [1]: 210 nM
Compound: Cc1noc(C(Cc2ccc(NS(=O)(=O)O)cc2)(Cc2cccc(C#N)c2)c2nc(C)no2)n1

IC50 [1]: 340 nM
Compound: COc1ccc(CC(Cc2ccc(NS(=O)(=O)O)cc2)(c2nc(C)no2)c2nc(C)no2)cc1

IC50 [1]: 330 nM
Compound: COC(=O)C(Cc1ccc(NS(=O)(=O)O)cc1)(Cc1cccc(OC)c1)C(=O)OC

Continued, compound first:

Compound: COC(=O)C(CCCS(C)(=O)=O)(Cc1ccc(NS(=O)(=O)O)cc1)C(=O)OC
IC50 [1]: 420 nM

Compound: COC(=O)C(Cc1ccc(NS(=O)(=O)O)cc1)C(=O)OC
IC50 [1]: 1000 nM

Compound: CCOC(=O)C(Cc1ccc(NS(=O)(=O)O)cc1)(NC(=O)OCc1ccccc1)C(=O)OC (configuration not stated)
IC50 [2]: > 500000 nM | IC50 [3]: 227000 nM | IC50 [4]: 472000 nM | IC50 [5]: 12800 nM | IC50 [6]: 82200 nM | IC50 [1]: 400 nM | IC50 [7]: 196000 nM | IC50 [8]: 280000 nM | IC50 [9]: 78000 nM | IC50 [10]: > 500000 nM

Compound: Cc1noc(C(CCCc2ccccc2)(Cc2ccc(NS(=O)(=O)O)cc2)c2nc(C)no2)n1
IC50 [1]: 70 nM

Compound: COC(=O)CCCC(Cc1ccc(NS(=O)(=O)O)cc1)(C(=O)OC)C(=O)OC
IC50 [1]: 380 nM

Compound: CCOC(=O)C(Cc1ccc(NS(=O)(=O)O)cc1)(NC(=O)OC(C)(C)C)C(=O)OC (configuration not stated)
IC50 [1]: 450 nM

Compound: COC(=O)C(CCCS(=O)(=O)c1ccccc1)(Cc1ccc(NS(=O)(=O)O)cc1)C(=O)OC
IC50 [1]: 150 nM

Compound: COc1cccc(CC(Cc2ccc(NS(=O)(=O)O)cc2)(c2nc(C)no2)c2nc(C)no2)c1
IC50 [1]: 230 nM

Compound: COC(=O)c1ccc(CC(Cc2ccc(NS(=O)(=O)O)cc2)(C(=O)OC)C(=O)OC)cc1
IC50 [1]: 410 nM

Compound: COC(=O)C(Cc1ccc(NS(=O)(=O)O)cc1)(Cc1ccc(S(N)(=O)=O)cc1)C(=O)OC
IC50 [1]: 430 nM

Compound: COC(=O)C(COCc1ccccc1)(Cc1ccc(NS(=O)(=O)O)cc1)C(=O)OC
IC50 [1]: 270 nM

Compound: COC(=O)c1cccc(CC(Cc2ccc(NS(=O)(=O)O)cc2)(C(=O)OC)C(=O)OC)c1
IC50 [1]: 290 nM

Compound: COC(=O)C(Cc1ccc(NS(=O)(=O)O)cc1)(Cc1ccc(OC)cc1)C(=O)OC
IC50 [1]: 390 nM

Compound: COC(=O)C(Cc1ccc(NS(=O)(=O)O)cc1)(Cc1cccc(S(N)(=O)=O)c1)C(=O)OC
IC50 [1]: 300 nM

Compound: COC(=O)C(CCCSc1nnnn1-c1ccccc1)(Cc1ccc(NS(=O)(=O)O)cc1)C(=O)OC
IC50 [1]: 200 nM

Compound: COC(=O)C(Cc1ccc(NS(=O)(=O)O)cc1)(Cc1ccc(NS(=O)(=O)O)cc1)C(=O)OC
IC50 [1]: 60 nM

Compound: COC(=O)C(CCCc1ccccc1)(Cc1ccc(NS(=O)(=O)O)cc1)C(=O)OC
IC50 [2]: > 500000 nM | IC50 [3]: 409000 nM | IC50 [4]: > 500000 nM | IC50 [5]: 2300 nM | IC50 [6]: 7700 nM | IC50 [1]: 150 nM | IC50 [7]: 93000 nM | IC50 [8]: 29000 nM | IC50 [9]: 15300 nM | IC50 [10]: > 500000 nM

Compound: COC(=O)C(Cc1ccc(NS(=O)(=O)O)cc1)(Cc1cccc(NS(=O)(=O)O)c1)C(=O)OC
IC50 [1]: 100 nM
